In PubChem BioAssay (NCI):
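Protocol summary: plate cells (96-well), add compound at 5 concentrations, incubate 48 h, interpolate endpoints linearly. TGI is the concentration that stops growth completely.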

What was measured:
Test in all cases: NCI-60 cell line screen, 48 h
ACHN renal = tested on: ACHN renal
MDA-N = tested on: MDA-N
M14 melanoma = tested on: M14 melanoma
786-0 renal = tested on: 786-0 renal
SF-268 CNS = tested on: SF-268 CNS
SK-MEL-5 melanoma = tested on: SK-MEL-5 melanoma
U251 CNS = tested on: U251 CNS
RXF 393 renal = tested on: RXF 393 renal
HCT-15 colon = tested on: HCT-15 colon
HOP-62 NSCLC = tested on: HOP-62 NSCLC
MCF7 breast = tested on: MCF7 breast
NCI-H226 lung = tested on: NCI-H226 lung
SNB-19 CNS = tested on: SNB-19 CNS
NCI-H23 lung = tested on: NCI-H23 lung
SF-539 CNS = tested on: SF-539 CNS
SK-MEL-2 melanoma = tested on: SK-MEL-2 melanoma
SF-295 CNS = tested on: SF-295 CNS
SW-620 colon = tested on: SW-620 colon
PC-3 prostate = tested on: PC-3 prostate
HCT-116 colon = tested on: HCT-116 colon
MDA-MB-231 breast = tested on: MDA-MB-231 breast
EKVX NSCLC = tested on: EKVX NSCLC
SK-MEL-28 melanoma = tested on: SK-MEL-28 melanoma
LOX IMVI melanoma = tested on: LOX IMVI melanoma
OVCAR-5 ovarian = tested on: OVCAR-5 ovarian
T-47D breast = tested on: T-47D breast
A549 NSCLC = tested on: A549 NSCLC
SNB-75 CNS = tested on: SNB-75 CNS
DU-145 prostate = tested on: DU-145 prostate
HL-60(TB) leukemia = tested on: HL-60(TB) leukemia
CCRF-CEM leukemia = tested on: CCRF-CEM leukemia
MALME-3M melanoma = tested on: MALME-3M melanoma
HOP-92 NSCLC = tested on: HOP-92 NSCLC
HCC-2998 colon = tested on: HCC-2998 colon
TK-10 renal = tested on: TK-10 renal
A498 renal = tested on: A498 renal
IGROV1 ovarian = tested on: IGROV1 ovarian
OVCAR-3 ovarian = tested on: OVCAR-3 ovarian
OVCAR-8 ovarian = tested on: OVCAR-8 ovarian
K-562 leukemia = tested on: K-562 leukemia
MOLT-4 leukemia = tested on: MOLT-4 leukemia
COLO 205 colon = tested on: COLO 205 colon
HS 578T breast = tested on: HS 578T breast
RPMI-8226 leukemia = tested on: RPMI-8226 leukemia
SR leukemia = tested on: SR leukemia
NCI-H460 lung = tested on: NCI-H460 lung
CAKI-1 renal = tested on: CAKI-1 renal
HT29 colon = tested on: HT29 colon
UO-31 renal = tested on: UO-31 renal
UACC-62 melanoma = tested on: UACC-62 melanoma
UACC-257 melanoma = tested on: UACC-257 melanoma
OVCAR-4 ovarian = tested on: OVCAR-4 ovarian
MDA-MB-435 = tested on: MDA-MB-435
KM12 colon = tested on: KM12 colon
BT-549 breast = tested on: BT-549 breast
SN12C renal = tested on: SN12C renal
NCI-H522 lung = tested on: NCI-H522 lung
NCI/ADR-RES ovarian = tested on: NCI/ADR-RES ovarian
SK-OV-3 ovarian = tested on: SK-OV-3 ovarian

Work on `COc1cccc2cc(C(=O)O)c(=O)oc12` yielded a TGI (ACHN renal) of over 100 µM, a TGI (MDA-N) of over 100 µM and a TGI (M14 melanoma) of over 100 µM. It also gave a TGI (786-0 renal) of over 100 µM, a TGI (SF-268 CNS) of over 100 µM and a TGI (SK-MEL-5 melanoma) of over 100 µM. It also gave a TGI (U251 CNS) of over 100 µM, a TGI (RXF 393 renal) of over 100 µM and a TGI (HCT-15 colon) of over 100 µM. It also gave a TGI (HOP-62 NSCLC) of over 100 µM, a TGI (MCF7 breast) of over 100 µM and a TGI (NCI-H226 lung) of over 100 µM. The TGI (SNB-19 CNS) was over 100 µM, the TGI (NCI-H23 lung) was over 100 µM and the TGI (SF-539 CNS) was over 100 µM. For the same molecule, the TGI (SK-MEL-2 melanoma) was over 100 µM, the TGI (SF-295 CNS) was over 100 µM and the TGI (SW-620 colon) was over 100 µM. The TGI (PC-3 prostate) was over 100 µM, the TGI (HCT-116 colon) was over 100 µM and the TGI (MDA-MB-231 breast) was over 100 µM. For the same molecule, the TGI (EKVX NSCLC) was over 100 µM, the TGI (SK-MEL-28 melanoma) was over 100 µM and the TGI (LOX IMVI melanoma) was over 100 µM. For the same molecule, the TGI (OVCAR-5 ovarian) was over 100 µM, the TGI (T-47D breast) was over 100 µM and the TGI (A549 NSCLC) was over 100 µM. It also gave a TGI (SNB-75 CNS) of over 100 µM, a TGI (DU-145 prostate) of over 100 µM and a TGI (HL-60(TB) leukemia) of over 100 µM. For the same molecule, the TGI (CCRF-CEM leukemia) was over 100 µM, the TGI (MALME-3M melanoma) was over 100 µM and the TGI (HOP-92 NSCLC) was over 100 µM. The TGI (HCC-2998 colon) was over 100 µM, the TGI (TK-10 renal) was over 100 µM and the TGI (A498 renal) was over 100 µM. For the same molecule, the TGI (IGROV1 ovarian) was over 100 µM, the TGI (OVCAR-3 ovarian) was over 100 µM and the TGI (OVCAR-8 ovarian) was over 100 µM. It also gave a TGI (K-562 leukemia) of over 100 µM, a TGI (MOLT-4 leukemia) of over 100 µM and a TGI (COLO 205 colon) of over 100 µM. For the same molecule, the TGI (HS 578T breast) was over 100 µM, the TGI (RPMI-8226 leukemia) was over 100 µM and the TGI (SR leukemia) was over 100 µM. The TGI (NCI-H460 lung) was over 100 µM, the TGI (CAKI-1 renal) was over 100 µM and the TGI (HT29 colon) was over 100 µM. It also gave a TGI (UO-31 renal) of over 100 µM, a TGI (UACC-62 melanoma) of over 100 µM and a TGI (UACC-257 melanoma) of over 100 µM. It also gave a TGI (OVCAR-4 ovarian) of over 100 µM, a TGI (MDA-MB-435) of over 100 µM and a TGI (KM12 colon) of over 100 µM. It also gave a TGI (BT-549 breast) of over 100 µM, a TGI (SN12C renal) of over 100 µM and a TGI (NCI-H522 lung) of over 100 µM. It also gave a TGI (NCI/ADR-RES ovarian) of over 100 µM.
`O=C(CCc1cc(O)ccc1O)OCCc1ccccc1` showed a TGI (ACHN renal) of 18.4 µM, a TGI (MDA-N) of 26.9 µM and a TGI (M14 melanoma) of over 61.6 µM. The TGI (786-0 renal) was 24.5 µM, the TGI (SF-268 CNS) was over 50.5 µM and the TGI (SK-MEL-5 melanoma) was over 55.6 µM. The TGI (SK-OV-3 ovarian) was over 100 µM, the TGI (U251 CNS) was 29.1 µM and the TGI (RXF 393 renal) was 25.9 µM. For the same molecule, the TGI (HCT-15 colon) was 27.2 µM, the TGI (HOP-62 NSCLC) was over 100 µM and the TGI (MCF7 breast) was 57.3 µM. For the same molecule, the TGI (NCI-H226 lung) was over 76.3 µM, the TGI (SNB-19 CNS) was over 100 µM and the TGI (NCI-H23 lung) was over 90.8 µM. It also gave a TGI (SF-539 CNS) of 14.9 µM, a TGI (SK-MEL-2 melanoma) of over 100 µM and a TGI (SF-295 CNS) of over 100 µM. The TGI (SW-620 colon) was 42.2 µM, the TGI (PC-3 prostate) was 18.5 µM and the TGI (HCT-116 colon) was 27.3 µM. The TGI (MDA-MB-231 breast) was 42.7 µM, the TGI (EKVX NSCLC) was 61.9 µM and the TGI (SK-MEL-28 melanoma) was 78.7 µM. For the same molecule, the TGI (OVCAR-5 ovarian) was over 52.1 µM, the TGI (T-47D breast) was 64.8 µM and the TGI (A549 NSCLC) was over 100 µM. For the same molecule, the TGI (SNB-75 CNS) was over 100 µM, the TGI (DU-145 prostate) was 41.2 µM and the TGI (HL-60(TB) leukemia) was 5.92 µM. For the same molecule, the TGI (CCRF-CEM leukemia) was 1.94 µM, the TGI (MALME-3M melanoma) was 23.5 µM and the TGI (HOP-92 NSCLC) was 13 µM. The TGI (HCC-2998 colon) was over 80.7 µM, the TGI (TK-10 renal) was 27.8 µM and the TGI (A498 renal) was over 100 µM. The TGI (IGROV1 ovarian) was 22.3 µM, the TGI (OVCAR-8 ovarian) was over 57.6 µM and the TGI (K-562 leukemia) was 30.9 µM. The TGI (MOLT-4 leukemia) was over 21 µM, the TGI (COLO 205 colon) was 22.6 µM and the TGI (HS 578T breast) was 67.7 µM. It also gave a TGI (RPMI-8226 leukemia) of over 23.2 µM, a TGI (SR leukemia) of over 100 µM and a TGI (NCI-H460 lung) of over 100 µM. It also gave a TGI (CAKI-1 renal) of 27.2 µM, a TGI (HT29 colon) of over 100 µM and a TGI (UO-31 renal) of 18.7 µM. It also gave a TGI (UACC-62 melanoma) of 33.9 µM, a TGI (UACC-257 melanoma) of 28.9 µM and a TGI (OVCAR-4 ovarian) of 32.5 µM. The TGI (MDA-MB-435) was 24.5 µM, the TGI (KM12 colon) was over 80.6 µM and the TGI (BT-549 breast) was 26.6 µM. For the same molecule, the TGI (SN12C renal) was 44.9 µM, the TGI (NCI-H522 lung) was 1.78 µM and the TGI (NCI/ADR-RES ovarian) was over 100 µM.
For `S=C1SSC2N=CC=CC12` (stereo not drawn), the TGI (ACHN renal) was over 100 µM, the TGI (MDA-N) was over 100 µM and the TGI (M14 melanoma) was over 100 µM. For the same molecule, the TGI (786-0 renal) was over 100 µM, the TGI (SF-268 CNS) was over 100 µM and the TGI (SK-MEL-5 melanoma) was over 100 µM. It also gave a TGI (SK-OV-3 ovarian) of over 100 µM, a TGI (U251 CNS) of over 100 µM and a TGI (RXF 393 renal) of over 100 µM. The TGI (HCT-15 colon) was over 100 µM, the TGI (MCF7 breast) was over 100 µM and the TGI (NCI-H226 lung) was over 100 µM. For the same molecule, the TGI (SNB-19 CNS) was over 100 µM, the TGI (NCI-H23 lung) was over 100 µM and the TGI (SF-539 CNS) was over 100 µM. The TGI (SK-MEL-2 melanoma) was over 100 µM, the TGI (SF-295 CNS) was over 100 µM and the TGI (SW-620 colon) was over 100 µM. For the same molecule, the TGI (PC-3 prostate) was over 100 µM, the TGI (HCT-116 colon) was over 100 µM and the TGI (MDA-MB-231 breast) was over 100 µM. For the same molecule, the TGI (EKVX NSCLC) was over 100 µM, the TGI (SK-MEL-28 melanoma) was over 100 µM and the TGI (LOX IMVI melanoma) was over 100 µM. For the same molecule, the TGI (OVCAR-5 ovarian) was over 100 µM, the TGI (T-47D breast) was over 100 µM and the TGI (A549 NSCLC) was over 100 µM. For the same molecule, the TGI (SNB-75 CNS) was over 100 µM, the TGI (DU-145 prostate) was over 100 µM and the TGI (HL-60(TB) leukemia) was over 100 µM. The TGI (CCRF-CEM leukemia) was 71.1 µM, the TGI (MALME-3M melanoma) was over 100 µM and the TGI (HOP-92 NSCLC) was over 100 µM. For the same molecule, the TGI (HCC-2998 colon) was 61.4 µM, the TGI (TK-10 renal) was over 100 µM and the TGI (A498 renal) was over 100 µM. For the same molecule, the TGI (IGROV1 ovarian) was over 100 µM, the TGI (OVCAR-3 ovarian) was over 100 µM and the TGI (OVCAR-8 ovarian) was over 100 µM. It also gave a TGI (K-562 leukemia) of over 100 µM, a TGI (MOLT-4 leukemia) of over 100 µM and a TGI (COLO 205 colon) of over 100 µM. The TGI (HS 578T breast) was over 100 µM, the TGI (RPMI-8226 leukemia) was over 100 µM and the TGI (SR leukemia) was over 100 µM. The TGI (NCI-H460 lung) was over 100 µM, the TGI (CAKI-1 renal) was 34.3 µM and the TGI (HT29 colon) was over 100 µM. It also gave a TGI (UO-31 renal) of over 100 µM, a TGI (UACC-62 melanoma) of over 100 µM and a TGI (UACC-257 melanoma) of over 100 µM. For the same molecule, the TGI (OVCAR-4 ovarian) was 34.2 µM, the TGI (MDA-MB-435) was 31.8 µM and the TGI (KM12 colon) was 33 µM. For the same molecule, the TGI (BT-549 breast) was over 100 µM, the TGI (SN12C renal) was over 100 µM and the TGI (NCI-H522 lung) was over 100 µM. It also gave a TGI (NCI/ADR-RES ovarian) of over 100 µM.
